Reference: patent US5736522A, “Esculetin derivatives and method for manufacture thereof, use thereof, and pharmaceutical composition” (Kureha Chemical Industry Co., Ltd., priority 1993, dated 1998)

Key:
GAG in the matrix = experiment: Suppression of reduction in GAG in the matrix caused by stimulation of interleukin-1 or the like
[1] = tested on: Crj: CD-1 (ICR) male mice; experiment: Acute toxicity of esculetin derivatives, mice; conditions: mouse, in vivo
Protocol: (§1) The toxicity of the esculetin derivatives of the present invention was examined. Typical examples of the present derivatives were administered orally at a dose of 2000 mg/kg (body weight) to male mice and male rats which were then observed for seven days. No deaths and no remarkable toxicity were observed. The esculetin derivatives of the present invention are extremely safe compounds (see Example 27).
(§2) The acute toxicity of the present substance was examined using Crj: CD-1 (ICR) male mice (6 weeks old) and Wistar male rats (6 weeks old). 6-(β-2-acetoamide-2-deoxy-D-glucopyranosyloxy)-7-hydroxycoumarin [Ib-2] […] No deaths were observed. […] In the experiments, two animals were used for each group.

Wistar male rats = experiment: Acute toxicity of esculetin derivatives, rats; conditions: rat, in vivo
Protocol: as §1, §2

SMILES | suppression of the reduction in GAG in the matrix (GAG in the matrix) | deaths [1] | deaths (Wistar male rats)
Cc1cc(=O)oc2cc(O)c(O)cc12 [4-methylesculetin] | strongly suppress the reduction in the GAG in the matrix | – | –
CC(=O)N[C@H]1[C@H](Oc2cc3ccc(=O)oc3cc2O)O[C@H](CO)[C@@H](O)[C@@H]1O [Ib-2] | – | No deaths | No deaths
O=c1ccc2cc(O)c(O)cc2o1 [esculetin] | strongly suppress the reduction in the GAG in the matrix | – | –
